In patent US20260297083A1, “SUBSTITUTED ACETYLENE COMPOUND DERIVATIVES AND THEIR PHARMACEUTICAL USE” (AVELOS THERAPEUTICS INC., priority 2023, published 2026):

What follows are molecules tested against T1, Polθ polymerase domain (amino acids 1792-2590) (Homo sapiens, UniProt O75417) (assay: Picogreen assay of Polθ polymerase activity). Conditions: 12-point concentration response, 90 minutes incubation at room temperature, 8 nM Polθ in 2×polymerase mixture, read-out: PolQ IC50.
T1 construct: 10×Histidine-SUMO (N, cleaved yes); made in house; host or cells: E. coli
T1 sequence (O75417 1792-2590): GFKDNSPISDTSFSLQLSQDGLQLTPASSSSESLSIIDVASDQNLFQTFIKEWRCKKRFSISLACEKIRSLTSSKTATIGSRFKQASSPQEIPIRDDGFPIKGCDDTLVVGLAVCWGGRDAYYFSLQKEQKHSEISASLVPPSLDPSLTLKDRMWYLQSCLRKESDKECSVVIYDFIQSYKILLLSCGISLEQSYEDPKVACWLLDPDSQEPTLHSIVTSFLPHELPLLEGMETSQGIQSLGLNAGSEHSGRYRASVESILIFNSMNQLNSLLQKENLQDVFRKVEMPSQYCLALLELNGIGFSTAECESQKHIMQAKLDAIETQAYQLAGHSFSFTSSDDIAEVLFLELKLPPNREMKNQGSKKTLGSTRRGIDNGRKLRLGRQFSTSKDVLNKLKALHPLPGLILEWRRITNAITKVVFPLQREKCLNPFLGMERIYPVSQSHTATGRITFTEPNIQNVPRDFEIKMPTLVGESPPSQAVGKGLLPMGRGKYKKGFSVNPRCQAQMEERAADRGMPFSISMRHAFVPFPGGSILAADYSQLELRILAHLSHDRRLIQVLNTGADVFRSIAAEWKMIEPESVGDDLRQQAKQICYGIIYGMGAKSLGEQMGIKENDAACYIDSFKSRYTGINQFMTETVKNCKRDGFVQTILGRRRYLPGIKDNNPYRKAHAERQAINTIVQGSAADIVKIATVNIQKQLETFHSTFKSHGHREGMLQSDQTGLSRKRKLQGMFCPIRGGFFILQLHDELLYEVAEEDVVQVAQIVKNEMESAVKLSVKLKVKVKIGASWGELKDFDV
Type: biochemical
In short: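 E. coli-expressed polymerase domain with His-SUMO tag removed; 2× enzyme mix (8 nM) combined with 2× substrate mix (100 nM annealed primer/template DNA, 40 uM dNTPs). Buffer 25 mM Tris-HCl pH 7.5, 12.5 mM NaCl, 0.5 mM MgCl2, 1 mM DTT. Reaction 90 min at room temperature, then EDTA/Picogreen stain read at 485/520 nm; 12-point IC50.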

Row | SMILES | IC50 [nM]
1 | Cc1cc(C(F)(F)F)cc(N2[C@H](C(=O)N(CC#Cc3nc(C)c(C(N)=O)nc3C)c3ccc(F)c(C)c3)CCS2(=O)=O)n1 [compound 119] | 1 to 50
2 | Cc1cc(C(F)(F)F)cc(N2[C@H](C(=O)N(CC#Cc3cccc(C(N)=O)n3)c3ccc(F)c(C)c3)CCS2(=O)=O)n1 [compound 120] | 1 to 50
3 | Cc1cc(C(F)(F)F)cc(N2[C@H](C(=O)N(CC#Cc3cnc(C(N)=O)c(C#N)c3)c3ccc(F)c(C)c3)CCS2(=O)=O)n1 [compound 121] | 1 to 50
4 | Cc1cc(C(F)(F)F)cc(N2[C@H](C(=O)N(CC#Cc3cc(F)c(C(N)=O)cn3)c3ccc(F)c(C)c3)CCS2(=O)=O)n1 [compound 122] | 1 to 50
5 | Cc1cc(C(F)(F)F)cc(N2[C@H](C(=O)N(CC#Cc3cnc(C(N)=O)nn3)c3ccc(F)c(C)c3)CCS2(=O)=O)n1 [compound 123] | 1 to 50
6 | Cc1cc(C(F)(F)F)cc(N2[C@H](C(=O)N(CC#Cc3ncc(C(N)=O)nn3)c3ccc(F)c(C)c3)CCS2(=O)=O)n1 [compound 124] | 1 to 50
7 | Cc1cc(N(CC#Cc2cnc(N3CCOCC3)cn2)C(=O)[C@@H]2CCS(=O)(=O)N2c2cc(C(F)(F)F)cc(C(F)(F)F)n2)ccc1F [compound 125] | 1 to 50
8 | Cc1cc(N(CC#Cc2ccc(C(N)=O)nc2)C(=O)[C@@H]2CCS(=O)(=O)N2c2cc(C(F)(F)F)cc(C(F)(F)F)n2)ccc1F [compound 126] | 1 to 50
9 | C=CC(=O)Nc1cncc(C#CCN(C(=O)[C@@H]2CCS(=O)(=O)N2c2cc(C(F)(F)F)cc(C)n2)c2ccc(F)c(C)c2)c1 [compound 127] | 1 to 50
10 | C=CC(=O)Nc1cncc(C#CCN(C(=O)[C@@H]2CCS(=O)(=O)N2c2cc(C(F)(F)F)cc(C)n2)c2ccc(F)c(C)c2)n1 [compound 128] | 1 to 50
11 | C=CC(=O)Nc1ccc(C#CCN(C(=O)[C@@H]2CCS(=O)(=O)N2c2cc(C(F)(F)F)cc(C)n2)c2ccc(F)c(C)c2)nn1 [compound 129] | 1 to 50
12 | C=C(F)C(=O)Nc1cncc(C#CCN(C(=O)[C@@H]2CCS(=O)(=O)N2c2cc(C(F)(F)F)cc(C)n2)c2ccc(F)c(C)c2)c1 [compound 130] | 1 to 50
13 | Cc1cc(C(F)(F)F)cc(N2[C@H](C(=O)N(CC#Cc3ccc(Cc4ccc(C(N)=O)nn4)nc3)c3ccc(F)c(C)c3)CCS2(=O)=O)n1 [compound 131] | 1 to 50
14 | Cc1cc(C(F)(F)F)cc(N2[C@H](C(=O)N(CC#Cc3ccc(Cc4ncc(C(N)=O)cn4)nc3)c3ccc(F)c(C)c3)CCS2(=O)=O)n1 [compound 132] | 1 to 50
15 | Cc1cc(C(F)(F)F)cc(N2[C@H](C(=O)N(CC#Cc3ccc(Cc4ccc(=O)[nH]n4)nc3)c3ccc(F)c(C)c3)CCS2(=O)=O)n1 [compound 133] | 1 to 50
16 | Cc1cc(C(F)(F)F)cc(N2[C@H](C(=O)N(CC#Cc3ccc(Cc4cnc5ccc(=O)[nH]c5c4)nc3)c3ccc(F)c(C)c3)CCS2(=O)=O)n1 [compound 134] | 1 to 50
17 | Cc1cc(C(F)(F)F)cc(N2[C@H](C(=O)N(CC#Cc3ccc(Cc4cccc5c(=O)[nH]cnc45)nc3)c3ccc(F)c(C)c3)CCS2(=O)=O)n1 [compound 135] | 1 to 50
18 | Cc1cc(C(F)(F)F)cc(N2[C@H](C(=O)N(CC#Cc3ccc(Cn4cc5cccc(C(N)=O)c5n4)nc3)c3ccc(F)c(C)c3)CCS2(=O)=O)n1 [compound 136] | 1 to 50
19 | C=CC(=O)Nc1cccc(C#CCN(C(=O)[C@@H]2CCS(=O)(=O)N2c2cc(C(F)(F)F)cc(C)n2)c2ccc(F)c(C)c2)n1 [compound 137, (S)-N-(3-(6-acrylamidopyridin-2-yl)prop-2-yn-1-yl)-N-(4-fluoro-3-methylphenyl)-2-(6-methyl-4-(trifluoromethyl)pyridin-2-yl)isothiazolidine-3-carboxamide 1,1-dioxide] | 1 to 50
20 | C=CC(=O)Nc1ccnc(C#CCN(C(=O)[C@@H]2CCS(=O)(=O)N2c2cc(C(F)(F)F)cc(C)n2)c2ccc(F)c(C)c2)c1 [compound 138, (S)-N-(3-(4-acrylamidopyridin-2-yl)prop-2-yn-1-yl)-N-(4-fluoro-3-methylphenyl)-2-(6-methyl-4-(trifluoromethyl)pyridin-2-yl)isothiazolidine-3-carboxamide 1,1-dioxide] | 1 to 50
21 | C=CC(=O)Nc1cc(C#CCN(C(=O)[C@@H]2CCS(=O)(=O)N2c2cc(C(F)(F)F)cc(C)n2)c2ccc(F)c(C)c2)ccn1 [compound 139, (S)-N-(3-(2-acrylamidopyridin-4-yl)prop-2-yn-1-yl)-N-(4-fluoro-3-methylphenyl)-2-(6-methyl-4-(trifluoromethyl)pyridin-2-yl)isothiazolidine-3-carboxamide 1,1-dioxide] | 1 to 50
22 | C=CC(=O)Nc1ccc(C#CCN(C(=O)[C@@H]2CCS(=O)(=O)N2c2cc(C(F)(F)F)cc(C)n2)c2ccc(F)c(C)c2)nc1 [compound 140, (S)-N-(3-(5-acrylamidopyridin-2-yl)prop-2-yn-1-yl)-N-(4-fluoro-3-methylphenyl)-2-(6-methyl-4-(trifluoromethyl)pyridin-2-yl)isothiazolidine-3-carboxamide 1,1-dioxide] | 1 to 50
23 | C=CC(=O)Nc1ccc(C#CCN(C(=O)[C@@H]2CCS(=O)(=O)N2c2cc(C(F)(F)F)cc(C)n2)c2ccc(F)c(C)c2)cn1 [compound 141, (S)-N-(3-(6-acrylamidopyridin-3-yl)prop-2-yn-1-yl)-N-(4-fluoro-3-methylphenyl)-2-(6-methyl-4-(trifluoromethyl)pyridin-2-yl)isothiazolidine-3-carboxamide 1,1-dioxide] | 1 to 50
24 | C=CC(=O)Nc1cccnc1C#CCN(C(=O)[C@@H]1CCS(=O)(=O)N1c1cc(C(F)(F)F)cc(C)n1)c1ccc(F)c(C)c1 [compound 142, (S)-N-(3-(3-acrylamidopyridin-2-yl)prop-2-yn-1-yl)-N-(4-fluoro-3-methylphenyl)-2-(6-methyl-4-(trifluoromethyl)pyridin-2-yl)isothiazolidine-3-carboxamide 1,1-dioxide] | 1 to 50
25 | C=CC(=O)Nc1ccncc1C#CCN(C(=O)[C@@H]1CCS(=O)(=O)N1c1cc(C(F)(F)F)cc(C)n1)c1ccc(F)c(C)c1 [compound 143, (S)-N-(3-(4-acrylamidopyridin-3-yl)prop-2-yn-1-yl)-N-(4-fluoro-3-methylphenyl)-2-(6-methyl-4-(trifluoromethyl)pyridin-2-yl)isothiazolidine-3-carboxamide 1,1-dioxide] | 51 to 100
26 | C=CC(=O)Nc1cnccc1C#CCN(C(=O)[C@@H]1CCS(=O)(=O)N1c1cc(C(F)(F)F)cc(C)n1)c1ccc(F)c(C)c1 [compound 144, (S)-N-(3-(3-acrylamidopyridin-4-yl)prop-2-yn-1-yl)-N-(4-fluoro-3-methylphenyl)-2-(6-methyl-4-(trifluoromethyl)pyridin-2-yl)isothiazolidine-3-carboxamide 1,1-dioxide] | 51 to 100
27 | Cc1cc(C(F)(F)F)cc(N2[C@H](C(=O)N(CC#Cc3ccc(C(N)=O)nc3)c3ccc(F)c(C)c3)CC3(CC3)S2(=O)=O)n1 [compound 145, (S)—N-(3-(6-carbamoylpyridin-3-yl)prop-2-yn-1-yl)-N-(4-fluoro-3-methylphenyl)-5-(6-methyl-4-(trifluoromethyl)pyridin-2-yl)-4-thia-5-azaspiro [2,4]heptane-6-carboxamide 4,4-dioxide] | 1 to 50
